The record followed here is patent US11413321B2, “Pharmaceutical composition for use in increasing hair, modifying scalp or skin, healing a wound, promoting osteogenesis, or modifying hair” (priority 2017, dated 2022).

What all share (type): in vivo, Wistar rat
One assay concerns Cxcl12. The experiment in a line: Quantitative PCR of dorsal tissues after subcutaneous administration (Cxcl12). The note with it: 20 μL per location into rat dorsal part; vs control without administration; FIG. 15. The method, then: (§1) 2.) C—X—C motif chemokine ligand 12 (Cxcl12), transcript variant 1, Rattus norvegicus: mRNA 1,880 bp NM 022177.3 GI: 7649650 Next, a change in gene expression in tissues was examined. Three regions were set between the head and the tail of the dorsal part of a 12-week-old Wistar rat (male), and each region was divided between the left and the right of the backbone into two regions to set a total of six regions on the dorsal part. Milk or palmitic acid was injected in an amount of 20 μL per location at two locations in the vicinity of the center of each region. The distance between the two locations was 1 cm. The collected tissue fragments were frozen with liquid nitrogen, and stored at −80° C. […] Analysis of gene expression by quantitative PCR was performed in the following manner: Integrated DNA technologies, Inc (Skokie, Ill., USA) was requested to design and synthesize gene-specific primers and probes, and using PrimeTime Gene Expression Master Mix Reagent (Integrated DNA Technologies, Inc, Skokie, Ill., USA) and Rotor-Gene Q PCR Apparatus (QIAGEN GmbH, Hilden, Germany), PCR analysis was performed twice per gene per specimen to analyze the expression level of a target gene. […]

In the next assay the test system is PPAR-γ-positive cells. The experiment in a line: Immunohistological staining of rat dorsal skin after injection of fatty acids (PPAR-γ). To be noted: 1 mg fatty acid in 20 μL per location. The method, then: Next, representative fatty acids contained in milk were administered to a 12-week-old Wistar rat at a plurality of locations on the dorsal skin as in Example 1(2) above, and a change in tissues by the administration was observed after the tissues were subjected to immunohistological staining. More specifically, physiological saline was administered in an amount of 20 μL per location, an administration liquid containing 1 mg of a fatty acid was administered in an amount of 20 μL per location, and a change in CD68-positive macrophage stained images and PPAR-γ-positive cell images by the administration was observed. Samples of the Wistar rat were obtained by sampling administration sites (four weeks after administration and eight weeks after administration). FIGS. 10A to 10G show the results. […] At saturated fatty acid injection sites, infiltration of a large number of CD68-positive cells was observed, and fibrillization of normal tissues was observed. Therefore, in FIGS. 10B to 10D, a change in fat tissues was examined at a location which was closest to the administration site and where normal tissues were maintained (non-fibrillization location).

A further assay has as its system CD34. The experiment in a line: Quantitative PCR of dorsal tissues after subcutaneous administration (CD34). To be noted: 20 μL per location into rat dorsal part; vs control without administration; FIG. 15. Here is the method:
as §1, with “5.) CD34,” for “2.) C—X—C motif chemokine ligand 12 (Cxcl12), transcript variant 1,”, “norvegicus: CD34 molecule (Cd34),” for “norvegicus:”, “1,161” for “1,880”, “001107202.2” for “022177.3”, “169790781” for “7649650”

In the case of `CCCCCCCCCCCCCCCC(=O)O` [palmitic acid], the “expression level of Cxcl12 in tissues” value with Cxcl12 is recorded as “greatly increased”. Moreover, the “increase in the number of PPAR-γ-positive cells at the administration site” value with PPAR-γ-positive cells (eight weeks after administration) is on record as “maintained”. Further, in the assay with PPAR-γ-positive cells (four weeks after administration, vs physiological saline, FIGS. 10B-10G), the “number of PPAR-γ-positive cells at the administration site” value is “increased”. Besides, in the assay with CD34, the “CD34 gene expression in tissues” value is listed as “increase”.
